Columns and labels:
[1] = test system: cerebellar granule neurons (CGN) culture; experiment: NO-induced cell death on cultured neurons; assay type: cell-based; conditions: Neuron, cell death induced by nitric oxide, concentration-dependent, read-out: IC50 for blocking nitric oxide-induced neuron cell death
Procedure: Efficacy of caffeic acid phenethyl ester on treating neurodegenerative disorders as well as other disorders related to NO-induced cell death was assessed by testing its ability to block NO-induced cell death on cultured neurons according to a method described in Du, et al., Proc Natl Acad Sci, 2001, 98, 14669-14674.

[2] = test system: striatal levels of dopamine, DOPAC and HVA; experiment: MPTP mouse model, striatal levels of dopamine and metabolites by HPLC; assay type: in vivo, mice; conditions: 40 mg/kg intraperitoneally, 48 hours after MPTP
Procedure: Caffeic acid phenethyl ester was evaluated for its efficacy in treating a neurodegenerative disorder in mice. Three groups of eight-week-old male C57B1/6 mice (Taconic Farms Inc., Germantown, N.Y.), 5-7 per group, were used. A group of mice were administered for 9 days with caffeic acid phenethyl ester (5 or 20 mg/kg/day in 10% alcohol by oral gavage, or 40 mg/kg/day in 10% alcohol by intraperitoneal injection). As a control, a second group of mice were administered with 10% alcohol free of caffeic acid phenethyl ester. These two groups of mice then received four intraperitoneal injections of 1-methyl-4-phenyl-1,2,3,6-tetrahydropyridine (“MPTP”)-HCl (20 mg/kg of free base) in saline at 2 hour intervals in a single day, as described in Liberatore, et al., Nat Med, 1999, 5, 1403-1409. The striatal levels of dopamine and its metabolites, dihydroxyphenylacetic acid (DOPAC) and homovanillic acid (HVA), were also determined by HPLC with electrochemical detector. See, e.g., Du, et al., Proc Natl Acad Sci, 2001, 98, 14669-14674.

[3] = test system: cerebellar granule neurons (CGN) culture; experiment: 6-hydroxydopamine-induced neurotoxicity on cultured neurons; assay type: cell-based; conditions: 6-hydroxydopamine used to induce neurotoxicity
[4] = test system: isolated working rabbit heart; experiment: Isolated working rabbit heart model of ischaemia; assay type: in vivo; conditions: 30 mg/kg intraperitoneal injection, p<0.05
Procedure: An isolated working rabbit heart model was use to define the cardioprotective effects (function, metabolic and ultrastructure) of caffeic acid phenethyl ester during ischaemia by the method described in Choong, et al., J Cardiovasc Surg (Torino), 1993 October, 34(5):423-433. More specifically, hearts (n=7 for each group) were arrested with and exposed to reinfusion (45 min) throughout the ischaemic period with a cold (4° C.) cardioplegic solution. […] The release of lactate dehydrogenase decreased during 40-minute ischaemic arrest (55.14+/-8.65 vs 19.33+/-7.4 IU/L perfusate for control and treatment, respectively; p<0.05). See […] et al., J Cardiovasc Pharmacol, 1999 October; 34(4):604-611.

[5] = test system: TH-positive neurons in the substantia nigra pars compacta (SNpc); experiment: MPTP mouse model, stereological count of TH-positive neurons in SNpc; assay type: in vivo, mice
Procedure: Caffeic acid phenethyl ester was evaluated for its efficacy in treating a neurodegenerative disorder in mice. Three groups of eight-week-old male C57B1/6 mice (Taconic Farms Inc., Germantown, N.Y.), 5-7 per group, were used. A group of mice were administered for 9 days with caffeic acid phenethyl ester (5 or 20 mg/kg/day in 10% alcohol by oral gavage, or 40 mg/kg/day in 10% alcohol by intraperitoneal injection). As a control, a second group of mice were administered with 10% alcohol free of caffeic acid phenethyl ester. These two groups of mice then received four intraperitoneal injections of 1-methyl-4-phenyl-1,2,3,6-tetrahydropyridine (“MPTP”)-HCl (20 mg/kg of free base) in saline at 2 hour intervals in a single day, as described in Liberatore, et al., Nat Med, 1999, 5, 1403-1409. Seven days after the last administration of MPTP, the mice were anesthetized by halothane inhalation. […] They were then incubated with rabbit polyclonal anti-tyrosine hydroxylase (anti-TH) antibody (1:2,500, CALBIOCHEM, La Jolla, Calif.), goat biotinylated-conjugated polyclonal anti-rabbit antibody (1:250; Vector Laboratories, Burlingame, Calif.), horseradish-peroxidase conjugated avidin/biotin complex (VECTASTAIN ABC Reagent, Vector Laboratories), and successively exposed to diaminobenzidine for TH-immunohistochemistry analysis and stereological quantification of TH-positive neurons. […]

## O=C(/C=C/c1ccc(O)c(O)c1)OCCc1ccccc1 [caffeic acid phenethyl ester]
[1]
  IC50: ~1000 nM
[2]; MPTP control decreased by 35%
  MPTP-induced reduction of striatal HVA level: 16%
[2]; MPTP control decreased by 46%
  MPTP-induced reduction of striatal DOPAC level: −2%
[2]; MPTP control decreased by 62%
  MPTP-induced reduction of striatal dopamine level: 3%
[3]
  neuroprotective effect against 6-hydroxydopamine-induced neurotoxicity: neuroprotective effect
[4]; n=7, control 71.48+/−9.66%
  postischaemic recovery of cardiac output: 90.83+/−3.2%
[4]; control 55.14+/−8.65
  release of lactate dehydrogenase during 40-minute ischaemic arrest: 19.33+/−7.4 IU/L perfusate
[5]; C57B1/6 mice, 5 or 20 mg/kg/day oral or 40 mg/kg/day i.p. for 9 days, then MPTP 4x20 mg/kg, 7 days after MPTP, MPTP control approximately 49%
  number of TH-positive neurons in SNpc, as compared with saline-only mice: up to 100%
[5]; treatment alone for nine days, no MPTP
  effect of compound alone on number of TH-positive neurons: did not significantly alter

— patent publication US8575215B2, “Treatment of neurodegenerative and cardiovascular disorders” (priority 2001, dated 2013)
